In patent publication US10246411B2, “(Z)-3,4,5-trimethoxystyrylbenzenesulfonamides as potential anticancer agents” (COUNCIL OF SCIENTIFIC & INDUSTRIAL RESEARCH, priority 2014, dated 2019):

Key:
SF-268 = test: In vitro cytotoxicity (NCI protocol, SRB), SF-268; details: Homo sapiens, SF-268, 48 h
HCC-2998 = test: In vitro cytotoxicity (NCI protocol, SRB), HCC-2998; details: Homo sapiens, HCC 2998, 48 h
U251 = test: In vitro cytotoxicity (NCI protocol, SRB), U251; details: Homo sapiens, U-251, 48 h
HCT-116 = test: In vitro cytotoxicity (NCI protocol, SRB), HCT-116; details: Homo sapiens, HCT-116, 48 h
SK-MEL-2 = test: In vitro cytotoxicity (NCI protocol, SRB), SK-MEL-2; details: Homo sapiens, SK-MEL-2, 48 h
RPMI-8226 = test: In vitro cytotoxicity (NCI protocol, SRB), RPMI-8226; details: Homo sapiens, RPMI-8226, 48 h
OVCAR-5 = test: In vitro cytotoxicity (NCI protocol, SRB), OVCAR-5; details: Homo sapiens, OVCAR-5, 48 h
HOP-62 = test: In vitro cytotoxicity (NCI protocol, SRB), HOP-62; details: Homo sapiens, HOP-62, 48 h
SK-OV-3 = test: In vitro cytotoxicity (NCI protocol, SRB), SK-OV-3; details: Homo sapiens, SK-OV-3, 48 h
MDA-MB-435 [1] = test: In vitro cytotoxicity (NCI protocol, SRB), MDA-MB-435 (melanoma panel); details: Melanoma MDA-MB-435, 48 h exposure
COLO-205 = test: In vitro cytotoxicity (NCI protocol, SRB), COLO-205; details: Homo sapiens, COLO 205, 48 h
RXF 393 = test: In vitro cytotoxicity (NCI protocol, SRB), RXF 393; details: Homo sapiens, RXF 393, 48 h
HS 578T = test: In vitro cytotoxicity (NCI protocol, SRB), HS 578T; details: Homo sapiens, 48 h
SK-MEL-28 = test: In vitro cytotoxicity (NCI protocol, SRB), SK-MEL-28; details: Homo sapiens, SK-MEL-28, 48 h
NCIH322M = test: In vitro cytotoxicity (NCI protocol, SRB), NCIH322M; details: Homo sapiens, NCI-H322M, 48 h
NCI-H522 = test: In vitro cytotoxicity (NCI protocol, SRB), NCI-H522; details: Homo sapiens, NCI-H522, 48 h
PC-3 = test: In vitro cytotoxicity (NCI protocol, SRB), PC-3; details: Homo sapiens, PC-3, 48 h
HT29 = test: In vitro cytotoxicity (NCI protocol, SRB), HT29; details: Homo sapiens, HT-29, 48 h
OVCAR-4 = test: In vitro cytotoxicity (NCI protocol, SRB), OVCAR-4; details: Homo sapiens, OVCAR-4, 48 h
CAKI-1 = test: In vitro cytotoxicity (NCI protocol, SRB), CAKI-1; details: Homo sapiens, CAKI-1, 48 h
OVCAR-8 = test: In vitro cytotoxicity (NCI protocol, SRB), OVCAR-8; details: Homo sapiens, OVCAR-8, 48 h
DU-145 = test: In vitro cytotoxicity (NCI protocol, SRB), DU-145; details: Homo sapiens, DU-145, 48 h
M14 = test: In vitro cytotoxicity (NCI protocol, SRB), M14; details: Homo sapiens, M14, 48 h
LOX IMVI = test: In vitro cytotoxicity (NCI protocol, SRB), LOX IMVI; details: Homo sapiens, 48 h
BT-549 = test: In vitro cytotoxicity (NCI protocol, SRB), BT-549; details: Homo sapiens, BT-549, 48 h
ACHN = test: In vitro cytotoxicity (NCI protocol, SRB), ACHN; details: Homo sapiens, 48 h
SW-620 = test: In vitro cytotoxicity (NCI protocol, SRB), SW-620; details: Homo sapiens, SW-620, 48 h
UACC-62 = test: In vitro cytotoxicity (NCI protocol, SRB), UACC-62; details: Homo sapiens, UACC-62, 48 h
MDA-MB-231/ATCC = test: In vitro cytotoxicity (NCI protocol, SRB), MDA-MB-231/ATCC; details: Homo sapiens, MDA-MB-231, 48 h
UACC-257 = test: In vitro cytotoxicity (NCI protocol, SRB), UACC-257; details: Homo sapiens, UACC-257, 48 h
MDA-MB-435 [2] = test: In vitro cytotoxicity (NCI protocol, SRB), MDA-MB-435 (breast panel line); details: Homo sapiens, MDA-MB-435, 48 h

Compound `COc1ccc(S(=O)(=O)Nc2cc(/C=C\c3cc(OC)c(OC)c(OC)c3)ccc2OC)cc1` [12a, (Z)-4-methoxy-N-(2-methoxy-5-(3,4,5-trimethoxystyryl)phenyl)benzenesulfonamide] has a GI50 (SF-268) of 401 nM, a GI50 (HCC-2998) of 442 nM and a GI50 (U251) of 108 nM. For the same compound, the GI50 (HCT-116) was 79.7 nM, the GI50 (SK-MEL-2) was 80.3 nM and the GI50 (RPMI-8226) was 319 nM. The GI50 (OVCAR-5) was 323 nM, the GI50 (HOP-62) was 41 nM and the GI50 (SK-OV-3) was 96.3 nM. The GI50 (MDA-MB-435 [1]; Homo sapiens, MDA-MB-435, 48 h) was 27.4 nM, the GI50 (COLO-205) was 38.3 nM and the GI50 (RXF 393) was 81.4 nM. For the same compound, the GI50 (HS 578T) was 226 nM, the GI50 (SK-MEL-28) was 143 nM and the GI50 (NCIH322M) was 430 nM. It also gave a GI50 (NCI-H522) of 20.4 nM, a GI50 (PC-3) of 124 nM and a GI50 (HT29) of 81 nM. It also gave a GI50 (OVCAR-4) of 581 nM, a GI50 (CAKI-1) of 51.5 nM and a GI50 (OVCAR-8) of 276 nM. The GI50 (DU-145) was 341 nM, the GI50 (M14) was 103 nM and the GI50 (LOX IMVI) was 272 nM. The GI50 (BT-549) was 197 nM, the GI50 (ACHN) was 58.7 nM and the GI50 (SW-620) was 78.5 nM. It also gave a GI50 (UACC-62) of 49 nM, a GI50 (MDA-MB-231/ATCC) of 399 nM and a GI50 (UACC-257) of 2980 nM. It also gave a GI50 (MDA-MB-435 [2]) of 168 nM.

`COc1ccc(S(=O)(=O)Nc2cc(/C=C\c3cc(OC)c(OC)c(OC)c3)cc(OC)c2OC)cc1` [13a, (Z)—N-(2,3-dimethoxy-5-(3,4,5-trimethoxystyryl)phenyl)-4-methoxybenzenesulfonamide] was tested, and the GI50 (SF-268) was 57.5 nM, the GI50 (HCC-2998) was 39.1 nM and the GI50 (U251) was 35.7 nM. The GI50 (HCT-116) was 35 nM, the GI50 (SK-MEL-2) was 37.4 nM and the GI50 (RPMI-8226) was 45.9 nM. The GI50 (OVCAR-5) was 49.9 nM, the GI50 (HOP-62) was 40.5 nM and the GI50 (SK-OV-3) was 37.8 nM. The GI50 (MDA-MB-435 [1]; Homo sapiens, MDA-MB-435, 48 h) was 21.1 nM, the GI50 (COLO-205) was 21.4 nM and the GI50 (RXF 393) was 40.1 nM. The GI50 (HS 578T) was 45.2 nM, the GI50 (SK-MEL-28) was 76.5 nM and the GI50 (NCIH322M) was 55.3 nM. For the same compound, the GI50 (NCI-H522) was 19.7 nM, the GI50 (PC-3) was 38 nM and the GI50 (HT29) was 33.1 nM. It also gave a GI50 (OVCAR-4) of 84.2 nM, a GI50 (CAKI-1) of 53.1 nM and a GI50 (OVCAR-8) of 45.9 nM. It also gave a GI50 (DU-145) of 41.6 nM, a GI50 (M14) of 30.1 nM and a GI50 (LOX IMVI) of 50 nM. For the same compound, the GI50 (BT-549) was 42.5 nM, the GI50 (ACHN) was 57 nM and the GI50 (SW-620) was 43.9 nM. The GI50 (UACC-62) was 46.1 nM, the GI50 (MDA-MB-231/ATCC) was 47.9 nM and the GI50 (UACC-257) was 4100 nM. It also gave a GI50 (MDA-MB-435 [2]) of 42 nM.

`COc1cc(/C=C\c2cc(OC)c(OC)c(OC)c2)cc(NS(=O)(=O)c2ccc(Cl)cc2)c1OC` [13c, (Z)-4-chloro-N-(2,3-dimethoxy-5-(3,4,5-trimethoxystyryl)phenyl)benzenesulfonamide] showed a GI50 (SF-268) of 1100 nM, a GI50 (HCC-2998) of 1980 nM and a GI50 (U251) of 461 nM. It also gave a GI50 (HCT-116) of 469 nM, a GI50 (SK-MEL-2) of 613 nM and a GI50 (RPMI-8226) of 387 nM. It also gave a GI50 (OVCAR-5) of 726 nM, a GI50 (HOP-62) of 414 nM and a GI50 (SK-OV-3) of 449 nM. The GI50 (MDA-MB-435 [1]; Homo sapiens, MDA-MB-435, 48 h) was 188 nM, the GI50 (COLO-205) was 252 nM and the GI50 (RXF 393) was 272 nM. It also gave a GI50 (HS 578T) of 351 nM, a GI50 (SK-MEL-28) of 1140 nM and a GI50 (NCIH322M) of 759 nM. It also gave a GI50 (NCI-H522) of 209 nM, a GI50 (PC-3) of 395 nM and a GI50 (HT29) of 348 nM. It also gave a GI50 (OVCAR-4) of 1530 nM, a GI50 (CAKI-1) of 374 nM and a GI50 (OVCAR-8) of 600 nM. It also gave a GI50 (DU-145) of 507 nM, a GI50 (M14) of 391 nM and a GI50 (LOX IMVI) of 566 nM. The GI50 (BT-549) was 966 nM, the GI50 (ACHN) was 586 nM and the GI50 (SW-620) was 343 nM. The GI50 (UACC-62) was 435 nM, the GI50 (MDA-MB-231/ATCC) was 1160 nM and the GI50 (UACC-257) was 12500 nM. The GI50 (MDA-MB-435 [2]) was 271 nM.

With `COc1ccc(S(=O)(=O)Nc2c(/C=C\c3cc(OC)c(OC)c(OC)c3)ccc(OC)c2O)cc1` [17a, (Z)—N-(2-hydroxy-3-methoxy-6-(3,4,5-trimethoxystyryl)phenyl)-4-methoxybenzenesulfonamide] the GI50 (SF-268) was 83.9 nM, the GI50 (HCC-2998) was 31.6 nM and the GI50 (U251) was 37.4 nM. For the same compound, the GI50 (HCT-116) was 32 nM, the GI50 (SK-MEL-2) was 43.7 nM and the GI50 (RPMI-8226) was 46.9 nM. It also gave a GI50 (OVCAR-5) of 1020 nM, a GI50 (HOP-62) of 39.7 nM and a GI50 (SK-OV-3) of 29.6 nM. It also gave a GI50 (MDA-MB-435 [1]; Homo sapiens, MDA-MB-435, 48 h) of 19 nM, a GI50 (MDA-MB-435 [1]) of 19.2 nM and a GI50 (COLO-205) of 406 nM. The GI50 (RXF 393) was 31.8 nM, the GI50 (HS 578T) was 47 nM and the GI50 (NCIH322M) was 63.3 nM. It also gave a GI50 (NCI-H522) of 20.2 nM, a GI50 (PC-3) of 40.8 nM and a GI50 (HT29) of 1400 nM. The GI50 (OVCAR-4) was 76.3 nM, the GI50 (CAKI-1) was 51.6 nM and the GI50 (OVCAR-8) was 46.6 nM. The GI50 (DU-145) was 42.5 nM, the GI50 (M14) was 31.3 nM and the GI50 (LOX IMVI) was 45.5 nM. For the same compound, the GI50 (BT-549) was 50.1 nM, the GI50 (ACHN) was 61.3 nM and the GI50 (SW-620) was 40.8 nM. It also gave a GI50 (UACC-62) of 38.9 nM, a GI50 (MDA-MB-231/ATCC) of 50.3 nM and a GI50 (MDA-MB-435 [2]) of 43.9 nM.

`COc1ccc(/C=C\c2cc(OC)c(OC)c(OC)c2)c(NS(=O)(=O)c2ccc(Cl)cc2)c1O` [17c, (Z)-4-chloro-N-(2-hydroxy-3-methoxy-6-(3,4,5-trimethoxystyryl)phenyl)benzenesulfonamide] showed a GI50 (SF-268) of 380 nM, a GI50 (HCC-2998) of 429 nM and a GI50 (U251) of 287 nM. The GI50 (HCT-116) was 114 nM, the GI50 (SK-MEL-2) was 65.9 nM and the GI50 (RPMI-8226) was 207 nM. The GI50 (OVCAR-5) was 2860 nM, the GI50 (HOP-62) was 671 nM and the GI50 (SK-OV-3) was 229 nM. For the same compound, the GI50 (MDA-MB-435 [1]; Homo sapiens, MDA-MB-435, 48 h) was 22.2 nM, the GI50 (COLO-205) was 1740 nM and the GI50 (RXF 393) was 35.5 nM. For the same compound, the GI50 (HS 578T) was 292 nM, the GI50 (SK-MEL-28) was 84.1 nM and the GI50 (NCIH322M) was 485 nM. The GI50 (NCI-H522) was 84.8 nM, the GI50 (PC-3) was 153 nM and the GI50 (HT29) was 2760 nM. The GI50 (OVCAR-4) was 97.2 nM, the GI50 (CAKI-1) was 54.2 nM and the GI50 (OVCAR-8) was 294 nM. For the same compound, the GI50 (DU-145) was 200 nM, the GI50 (M14) was 91.3 nM and the GI50 (LOX IMVI) was 153 nM. For the same compound, the GI50 (BT-549) was 353 nM, the GI50 (ACHN) was 83.8 nM and the GI50 (SW-620) was 69.4 nM. It also gave a GI50 (UACC-62) of 63.5 nM, a GI50 (MDA-MB-231/ATCC) of 206 nM and a GI50 (UACC-257) of 14200 nM. It also gave a GI50 (MDA-MB-435 [2]) of 36.7 nM.
